The test system of one assay is MCF7. Kind of assay: cells. Particulars: Homo sapiens, MCF7, 72 h.
For the next assay, the system named is A549. Kind of assay: Cytotoxicity against human A549 cells after 72 hrs by MTT assay. As to conditions: A549, 72 h.
The subject of another assay is HepG2. Put plainly: cells. As to conditions: Homo sapiens, HepG2, 72 h.
Assay [1] concerns the target Hepatocyte growth factor receptor (Homo sapiens, UniProt P08581). Put plainly: Inhibition of c-Met (unknown origin) using FAM-labeled peptide substrate after 10 mins by mobility shift assay.

Results on 39 compounds are retold here after ChEMBL document CHEMBL4184177, “Synthesis and bioevaluation study of novel N-methylpicolinamide and thienopyrimidine derivatives as selectivity c-Met kinase inhibitors” (Bioorg Med Chem, 2018).

Hepatocyte growth factor receptor, sequence (P08581 whole entry): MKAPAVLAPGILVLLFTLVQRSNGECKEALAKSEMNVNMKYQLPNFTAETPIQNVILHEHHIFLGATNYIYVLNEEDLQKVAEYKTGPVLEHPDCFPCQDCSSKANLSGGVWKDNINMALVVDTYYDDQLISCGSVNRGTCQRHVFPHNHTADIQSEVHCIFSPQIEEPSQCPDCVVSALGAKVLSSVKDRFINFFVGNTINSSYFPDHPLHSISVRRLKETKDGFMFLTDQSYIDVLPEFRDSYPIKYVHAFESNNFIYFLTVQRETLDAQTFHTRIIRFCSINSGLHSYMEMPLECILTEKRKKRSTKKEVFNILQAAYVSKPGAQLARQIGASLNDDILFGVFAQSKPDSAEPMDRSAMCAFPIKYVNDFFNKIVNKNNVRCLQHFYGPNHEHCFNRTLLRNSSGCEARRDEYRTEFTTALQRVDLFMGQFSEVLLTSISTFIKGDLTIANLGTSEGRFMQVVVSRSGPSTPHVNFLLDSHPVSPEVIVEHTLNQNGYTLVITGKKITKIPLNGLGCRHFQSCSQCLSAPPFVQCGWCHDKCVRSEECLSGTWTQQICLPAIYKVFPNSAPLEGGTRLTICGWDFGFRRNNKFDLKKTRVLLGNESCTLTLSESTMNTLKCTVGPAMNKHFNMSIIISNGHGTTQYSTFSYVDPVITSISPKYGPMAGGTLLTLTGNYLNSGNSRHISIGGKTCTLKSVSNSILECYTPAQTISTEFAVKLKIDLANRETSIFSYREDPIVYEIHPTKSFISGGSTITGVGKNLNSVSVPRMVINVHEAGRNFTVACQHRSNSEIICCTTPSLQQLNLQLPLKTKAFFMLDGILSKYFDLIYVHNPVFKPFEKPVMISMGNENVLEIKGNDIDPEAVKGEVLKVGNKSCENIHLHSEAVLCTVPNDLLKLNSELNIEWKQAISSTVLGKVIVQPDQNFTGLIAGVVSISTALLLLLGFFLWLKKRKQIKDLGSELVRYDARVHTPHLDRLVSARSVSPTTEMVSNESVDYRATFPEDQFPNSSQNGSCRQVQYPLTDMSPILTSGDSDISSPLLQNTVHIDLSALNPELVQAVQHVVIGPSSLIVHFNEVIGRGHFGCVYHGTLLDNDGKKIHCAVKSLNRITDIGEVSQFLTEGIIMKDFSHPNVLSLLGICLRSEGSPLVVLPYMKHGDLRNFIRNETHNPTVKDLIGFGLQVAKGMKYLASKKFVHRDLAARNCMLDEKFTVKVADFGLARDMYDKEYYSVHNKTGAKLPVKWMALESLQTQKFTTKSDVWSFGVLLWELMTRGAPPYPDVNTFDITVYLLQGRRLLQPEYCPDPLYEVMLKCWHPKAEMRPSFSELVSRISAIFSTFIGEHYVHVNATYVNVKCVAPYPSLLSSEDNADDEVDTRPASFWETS
Description for HepG2: Cytotoxicity against human HepG2 cells after 72 hrs by MTT assay
Description for MCF7: Cytotoxicity against human MCF7 cells after 72 hrs by MTT assay

Take `O=C(Nc1ccc(Oc2ncnc3ccsc23)c(F)c1)c1nn(-c2ccc(F)c(Cl)c2)ccc1=O`: the values for the IC50 in the assay with MCF7, in the assay with A549 and in the assay with HepG2 were 6.63 µM, 9.65 µM and 10.6 µM, respectively.

Take `CNC(=O)c1cc(Oc2ccc(NC(=O)c3nn(-c4ccc(Br)cc4F)c(=O)cc3C)cc2F)ccn1`: the values for the IC50 in the assay with MCF7, in the assay on A549 and with HepG2 were 9.36 µM, 7.93 µM and 2.83 µM, respectively.

For `Cc1ccc(-n2ccc(=O)c(C(=O)Nc3ccc(Oc4ncnc5ccsc45)c(F)c3)n2)cc1`, the results for the IC50 in the assay on MCF7, with A549 and in the assay on HepG2 were 23.2 µM, 11.6 µM and 24.2 µM, respectively.

Regarding `Cc1ccc(-n2nc(C(=O)Nc3ccc(Oc4ncnc5sccc45)c(F)c3)c(C)cc2=O)cc1`, the 50% inhibitory concentration (IC50) in the assay with MCF7, in the assay with A549 and in the assay on HepG2 was more than 40 µM each time.

Take `Cc1cc(=O)n(-c2ccc(Br)cc2F)nc1C(=O)Nc1ccc(Oc2ncnc3ccsc23)cc1`: the IC50 is 9.36 µM with MCF7, 7.93 µM with A549 and 10.6 µM in the assay on HepG2.

`Cc1cc(=O)n(-c2ccc(F)cc2)nc1C(=O)Nc1ccc(Oc2ncnc3sccc23)cc1`: the IC50 with MCF7 amounted to 21 µM; in the assay on A549, 7.05 µM; with HepG2, 6.46 µM.

In the case of `Cc1ccc(-n2nc(C(=O)Nc3ccc(Oc4ncnc5ccsc45)cc3)c(C)cc2=O)cc1`, the IC50 in the assay on MCF7 was 23.8 µM; with A549, 11.5 µM; with HepG2, 25 µM.

For `CNC(=O)c1cc(Oc2ccc(NC(=O)c3nn(-c4ccccc4F)c(=O)cc3C)cc2F)ccn1`, the half-maximal inhibitory concentration (IC50) with MCF7, in the assay on A549 and with HepG2 was more than 40 µM each time.

`Cc1cc(=O)n(-c2ccc(Br)cc2F)nc1C(=O)Nc1ccc(Oc2ncnc3sccc23)c(F)c1`: the values for the IC50 in the assay on MCF7, with A549 and with HepG2 were 13.2 µM, 11.5 µM and 13.8 µM, respectively.

Turning to `Cc1cc(=O)n(-c2ccc(F)c(F)c2)nc1C(=O)Nc1ccc(Oc2ncnc3ccsc23)c(F)c1`, the IC50 was found to be 6.9 µM in the assay with MCF7, 4.59 µM in the assay with A549 and 6.93 µM with HepG2.

On to `Cc1cc(=O)n(-c2ccccc2OC(F)(F)F)nc1C(=O)Nc1ccc(Oc2ncnc3sccc23)cc1`, for which the IC50 was 11 µM in the assay on MCF7, 15.5 µM with A549 and 14.4 µM in the assay on HepG2.

For the compound `Cc1ccc(-n2nc(C(=O)Nc3ccc(Oc4ncnc5sccc45)cc3)c(C)cc2=O)cc1`, the IC50 in the assay on MCF7, with A549 and with HepG2 was more than 40 µM throughout.

Regarding `Cc1cc(=O)n(-c2ccc(F)cc2)nc1C(=O)Nc1ccc(Oc2ncnc3sccc23)c(F)c1`, the 50% inhibitory concentration (IC50) came out at 12.3 µM in the assay on MCF7, 2.62 µM in the assay with A549 and 12.5 µM in the assay with HepG2.

In the case of `Cc1ccc(-n2nc(C(=O)Nc3ccc(Oc4ncnc5ccsc45)c(F)c3)c(C)cc2=O)cc1`, the IC50 in the assay on MCF7 was 7.25 µM; with A549 it was 5.89 µM; in the assay with HepG2 it was 17.2 µM.

Take `Cc1cc(=O)n(-c2ccccc2C(F)(F)F)nc1C(=O)Nc1ccc(Oc2ncnc3ccsc23)cc1`: the IC50 was found to be 5.55 µM in the assay on MCF7, 8.85 µM in the assay with A549 and 9.23 µM in the assay with HepG2.

For the compound `Cc1cc(=O)n(-c2ccccc2OC(F)(F)F)nc1C(=O)Nc1ccc(Oc2ncnc3sccc23)c(F)c1`, the IC50 in the assay on MCF7, with A549 and in the assay on HepG2 was more than 40 µM in each case.

`Cc1cc(=O)n(-c2cccc(F)c2)nc1C(=O)Nc1ccc(Oc2ncnc3ccsc23)cc1`: the IC50 with MCF7 stood at 6.41 µM; with A549, 9.54 µM; in the assay on HepG2, 10.2 µM.

`Cc1cc(=O)n(-c2ccc(F)cc2)nc1C(=O)Nc1ccc(Oc2ncnc3ccsc23)cc1`: the IC50 in the assay with MCF7 was determined as 4.4 µM; in the assay on A549 it was 2.36 µM; with HepG2 it was 2.11 µM; in assay [1] it was 0.048 µM.

On to `Cc1cc(=O)n(-c2ccc(F)c(F)c2)nc1C(=O)Nc1ccc(Oc2ncnc3sccc23)cc1`, for which the IC50 with MCF7 turned out to be 16.1 µM; in the assay with A549 it was 13.5 µM; with HepG2 it was 16.8 µM.

As for `CNC(=O)c1cc(Oc2ccc(NC(=O)c3nn(-c4cccc(F)c4)c(=O)cc3C)cc2F)ccn1`, the values for the IC50 with MCF7, in the assay with A549 and with HepG2 were 6.41 µM, 9.54 µM and 10.2 µM, respectively.

Regarding `Cc1cc(=O)n(-c2ccccc2C(F)(F)F)nc1C(=O)Nc1ccc(Oc2ncnc3sccc23)c(F)c1`, the IC50 in the assay on MCF7 stood at 13.8 µM; in the assay with A549, 16.3 µM; with HepG2, 14.7 µM.

For `Cc1cc(=O)n(-c2ccccc2C(F)(F)F)nc1C(=O)Nc1ccc(Oc2ncnc3sccc23)cc1`, the IC50 was more than 40 µM in the assay with MCF7, 19.9 µM in the assay with A549 and more than 40 µM in the assay with HepG2.

As to `Cc1cc(=O)n(-c2cccc(F)c2)nc1C(=O)Nc1ccc(Oc2ncnc3sccc23)cc1`, the half-inhibitory concentration (IC50) in the assay on MCF7 was found to be 27.2 µM; in the assay with A549, 16.4 µM; in the assay on HepG2 it was 18.5 µM.

As to `Cc1cc(=O)n(-c2ccc(F)c(F)c2)nc1C(=O)Nc1ccc(Oc2ncnc3ccsc23)cc1`, the IC50 in the assay with MCF7 turned out to be 5.55 µM; in the assay on A549, 8.18 µM; in the assay on HepG2, 9.23 µM.

Turning to `O=C(Nc1ccc(Oc2ncnc3ccsc23)c(F)c1)c1nn(-c2ccc(Br)cc2)ccc1=O`, the IC50 was found to be 9.62 µM in the assay with MCF7, 7.84 µM in the assay with A549 and 10.7 µM in the assay with HepG2.

Consider `Cc1cc(=O)n(-c2ccccc2C(F)(F)F)nc1C(=O)Nc1ccc(Oc2ncnc3ccsc23)c(F)c1`, for which the IC50 with MCF7 turned out to be 6.02 µM; with A549, 4.68 µM; with HepG2, 9.38 µM.

Consider `Cc1cc(=O)n(-c2ccc(Br)cc2F)nc1C(=O)Nc1ccc(Oc2ncnc3sccc23)cc1`, for which the IC50 in the assay on MCF7 stood at 15.2 µM; in the assay with A549 it was 12.8 µM; with HepG2, 6.3 µM.

For `CNC(=O)c1cc(Oc2ccc(NC(=O)c3nn(-c4ccccc4OC(F)(F)F)c(=O)cc3C)cc2F)ccn1`, the IC50 in the assay on MCF7, in the assay with A549 and in the assay with HepG2 was more than 40 µM each time.

Consider `CNC(=O)c1cc(Oc2ccc(NC(=O)c3nn(-c4ccccc4C(F)(F)F)c(=O)cc3C)cc2F)ccn1`, for which the half-maximal inhibitory concentration (IC50) in the assay on MCF7 is 35.7 µM; with A549 it was more than 40 µM; in the assay on HepG2 it was more than 40 µM.

As for `O=C(Nc1ccc(Oc2ncnc3ccsc23)c(F)c1)c1nn(-c2ccc(F)cc2)ccc1=O`, the figures for the IC50 with MCF7, in the assay with A549 and with HepG2 were 5.72 µM, 8.23 µM and 9.16 µM, respectively.

As for `Cc1ccc(-n2nc(C(=O)Nc3ccc(Oc4ncnc5ccsc45)cc3)c(C)cc2=O)c(C)c1`, the half-inhibitory concentration (IC50) in the assay on MCF7 was determined as 11.9 µM; in the assay with A549 it was 16.4 µM; in the assay on HepG2, 17.9 µM.

Take `O=C(Nc1ccc(Oc2ncnc3ccsc23)c(F)c1)c1nn(-c2ccccc2)ccc1=O`: the results for the IC50 in the assay with MCF7, in the assay with A549 and in the assay on HepG2 were 12.4 µM, 19.7 µM and 13.5 µM, respectively.

On to `Cc1cc(=O)n(-c2cccc(F)c2)nc1C(=O)Nc1ccc(Oc2ncnc3sccc23)c(F)c1`, for which the half-inhibitory concentration (IC50) in the assay with MCF7 worked out at 17.3 µM; in the assay on A549 it was 19.5 µM; in the assay with HepG2 it was 24.4 µM.

`Cc1cc(=O)n(-c2ccc(Br)cc2F)nc1C(=O)Nc1ccc(Oc2ncnc3ccsc23)c(F)c1`: the half-maximal inhibitory concentration (IC50) with MCF7 turned out to be 1.55 µM; with A549 it was 2.98 µM; in the assay on HepG2, 3.35 µM; in assay [1], 0.032 µM.

For the compound `CNC(=O)c1cc(Oc2ccc(NC(=O)c3nn(-c4ccc(C)cc4)c(=O)cc3C)cc2F)ccn1`, the values for the IC50 with MCF7, with A549 and in the assay with HepG2 were 8.38 µM, 11.5 µM and 10.6 µM, respectively.

With `Cc1cc(=O)n(-c2ccccc2OC(F)(F)F)nc1C(=O)Nc1ccc(Oc2ncnc3ccsc23)cc1`, the figures for the half-maximal inhibitory concentration (IC50) in the assay on MCF7, with A549 and in the assay with HepG2 were 23.8 µM, 10.1 µM and 25 µM, respectively.

Regarding `Cc1cc(=O)n(-c2ccc(F)c(F)c2)nc1C(=O)Nc1ccc(Oc2ncnc3sccc23)c(F)c1`, the IC50 is 20.6 µM in the assay with MCF7, 15.7 µM in the assay with A549 and more than 40 µM in the assay with HepG2.

As to `Cc1cc(=O)n(-c2ccccc2OC(F)(F)F)nc1C(=O)Nc1ccc(Oc2ncnc3ccsc23)c(F)c1`, the figures for the IC50 with MCF7, in the assay with A549 and with HepG2 were 11.5 µM, 5.72 µM and 15.7 µM, respectively.

Turning to `Cc1cc(=O)n(-c2cccc(F)c2)nc1C(=O)Nc1ccc(Oc2ncnc3ccsc23)c(F)c1`, the IC50 in the assay with MCF7 amounted to 9.05 µM; in the assay on A549, 5.22 µM; in the assay on HepG2 it was 7.81 µM.
